Data: US20240009191A1, “METHOD AND COMPOSITION FOR THE TREATMENT OF DISEASE” (DIMERIX BIOSCIENCE PTY LTD, priority 2019, published 2024)

Target: T1, AT1R (Homo sapiens, UniProt P30556)
T1 construct: expressed in transfected cells; host or cells: HEK293FT
T1 sequence (P30556 1-359): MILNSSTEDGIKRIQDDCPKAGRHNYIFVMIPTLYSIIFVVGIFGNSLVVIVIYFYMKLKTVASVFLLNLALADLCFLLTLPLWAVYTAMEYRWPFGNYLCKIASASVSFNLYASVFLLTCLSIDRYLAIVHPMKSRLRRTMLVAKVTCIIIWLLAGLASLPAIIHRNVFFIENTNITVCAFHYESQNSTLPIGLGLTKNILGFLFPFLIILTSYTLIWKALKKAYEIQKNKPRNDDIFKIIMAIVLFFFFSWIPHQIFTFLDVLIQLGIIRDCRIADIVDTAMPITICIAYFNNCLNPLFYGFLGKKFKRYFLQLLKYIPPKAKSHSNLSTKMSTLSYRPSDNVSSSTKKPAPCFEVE
Assay: BRET trafficking of AT1R/Rluc8 to Venus/Kras or Venus/Rab markers, absence of CXCR2
Assay type: cell-based
Conditions: 100 nM CXCL8, 1 μM AngII
Method: HEK293FT cells were seeded in 6-well plates at a density of approximately 700,000 cells/well and maintained at 37° C., 5% CO2 in Complete Media (DMEM containing 0.3 mg/ml glutamine, 100 IU/ml penicillin and 100 μg/ml streptomycin (Gibco/Thermo Fisher)) supplemented with 10% fetal calf serum (FCS; Bovogen). Transient transfections were carried out 24 h after seeding using FuGene6™ (Promega) according to manufacturer instructions. 24 h post-transfection, cells were washed with PBS, detached using 0.05% trypsin/0.53 mM EDTA, resuspended in HEPES-buffered phenol red free Complete Media containing 5% FCS and added to a poly-L-lysine-coated white 96-well microplate (Greiner Bio-One). 48 h post-transfection, bioluminescence resonance energy transfer (BRET) assays were carried out following pre-incubation of cells with EnduRen™ (Promega) at a final concentration of 30 μM, at 37° C., 5% CO2 for 2 h. BRET measurements were taken at 37° C. using the LUMlstar™ or CLARIOstar™ (BMG Labtech). Filtered light emissions were measured for 1 s in each of the ‘donor wavelength window’ (460-490 nm for LUMlstar™ or 410-490 nm for CLARIOstar™) and ‘acceptor wavelength window’ (520-550 nm for LUMlstar™ or 520-620 nm for CLARIOstar™).
The BRET signal observed between interacting proteins is normalized by subtracting the background BRET ratio. This can be done in one of two ways (see Pfleger et al. (2006) Cell Signal 18:1664-1670; Pfleger et al. (2006) Nat Protoc 1:336-344): 1) the ratio of the 520-550 nm or 520-620 nm emission over the 460-490 nm or 410-490 nm emission for a cell sample containing only the donor construct is subtracted from the same ratio for a sample containing the interacting acceptor and donor fusion proteins; 2) the ratio of the 520-550 nm or 520-620 nm emission over the 460-490 nm or 410-490 nm emission for a cell sample treated with vehicle is subtracted from the same ratio for a second aliquot of the same cell sample treated with ligand. In the following examples, the second calculation will be used and the signal is described as ligand-induced BRET′. Furthermore, for data shown in FIGS. 4 to 20, all data points in a given set are corrected relative to the final data point prior to agonist treatment, which is fixed to zero. In keys on FIGS. 7 to 20, “>” means “followed by after 50 minutes”, with agonists added at time zero on the x-axes.
Referring now to FIG. 3 (published in Tiulpakov et al (2016) Mol. Endocrinol. 30, 889-904), the proximity of Rluc8-tagged receptors to Venus-tagged Kras plasma membrane marker, or Venus-tagged Rabs specific for distinct subcellular locations, is monitored in live cells and in real-time using BRET. The Rab markers are: Venus/Rab5 (5) for early endosomes; Venus/Rab4 (4) for early endosome recycling; Venus/Rab11a (11) for recycling endosomes; Venus/Rab7 (7) for late endosomes/lysosomes; Venus/Rab9 (9) for late endosome trafficking to the trans-Golgi network; Venus/Rab1 (1) for endoplasmic reticulum trafficking to the cis-Golgi; Venus/Rab6 (6) for Golgi apparatus and trans-Golgi network; or Venus/Rab8 (8) for trans-Golgi network to plasma membrane.

With Angiotensin II [AngII] the “proximity of AT1R/Rluc8 to Venus/Rab6 (BRET)” value (Golgi apparatus to trans-Golgi network, FIG. 5I) was “little effect”, the “proximity of AT1R/Rluc8 to Venus/Rab4 (BRET)” value (early endosome recycling, FIG. 5E) was “increase” and the “proximity of AT1R/Rluc8 to Venus/Rab5 (BRET)” value (early endosomes, FIG. 5G) was “substantial increase”. The “proximity of AT1R/Rluc8 to Venus/Rab1 (BRET)” value (endoplasmic reticulum to cis-Golgi, FIG. 5C) was “increase”, the “proximity of AT1R/Rluc8 to Venus/Rab9 (BRET)” value (late endosome to trans-Golgi network, FIG. 5O) was “increase” and the “proximity of AT1R/Rluc8 to Venus/Rab7 (BRET)” value (late endosomes/lysosomes, FIG. 5K) was “increase”. For the same substance, the “proximity of AT1R/Rluc8 to Venus/Kras (BRET)” value (plasma membrane marker, FIG. 5A) was “marked reduction”, the “proximity of AT1R/Rluc8 to Venus/Rab11a (BRET)” value (recycling endosomes, FIG. 5Q) was “substantial increase” and the “proximity of AT1R/Rluc8 to Venus/Rab8 (BRET)” value (trans-Golgi network to plasma membrane, FIG. 5M) was “small increase at later time-points”.
